Among the data in a melting point compilation (Tetko et al.; mined from patent text by program, amines drawn as free bases though some values may be those of a salt) are melting point values, retold here.

SMILES strings stand for the structures. Some results are limits rather than exact numbers.

Usually melting point stands for the temperature of the solid-liquid transition.

Regarding `CCCCc1nc2cc(Cl)cc(C(=O)O)c2n1Cc1ccccc1Cl`, the melting point lay in the range of 261 to 262 °C.

On to `CCCOC(=O)CCNCC(O)COc1ccccc1C#N` (centres undefined), for which the melting point came to 89 °C. Molecule `CCOC(=O)CN1CCN(c2ccc(C#N)cc2)CC1=O` had a melting point of 108 °C. The same measure for `Cc1cc(-c2ccc(S(C)(=O)=O)cc2)n(-c2ccc(F)cc2)c1Cl`: 151 to 154 °C; for `COC(=O)CCCCCOc1ccc(NC(=O)OCCO)cc1`: 69.5 to 71.5 °C. In turn, `COC(=O)c1ccc2nc(CC(C)C)c(CNC(=O)OC(C)(C)C)c(-c3ccc(C)cc3)c2c1` showed a melting point of 192 to 194 °C. The same measure for `CC(C)CCOc1c(Sc2ccc(C(C)(C)C)cc2)c(Sc2ccccc2N)c(OCCC(C)C)c2c1C(=N)NC2=N`: 198 to 199 °C; for `CCOCc1nc2c(N)nc3ccccc3c2n1CCCNC(=O)OC(C)(C)C`: 124 to 126 °C. Molecule `Cc1cc(OCc2sc(-c3ccc(C(F)(F)F)cc3)nc2C)ccc1CCC(=O)O` yielded a melting point of 141 to 143 °C. The molecule `Cc1cccc(I)c1C(=O)NC(C)(C)CS(C)(=O)=O` registered a melting point of 134 to 136 °C. Molecule `COc1ccc(SC2=C(C(=O)O)CCC2=CCCc2ccccc2)cc1OC` gave a melting point of 146 to 148 °C. The same measure for `Cc1ccccc1-n1cnnc1C(F)(F)F`: 75 °C; for `O=[N+]([O-])c1ccc(C=COC=Cc2ccc([N+](=O)[O-])cc2)cc1`: 59 to 61 °C. In the case of `N#Cc1c(C(F)(F)F)nn(-c2c(Cl)cc(C(F)(F)F)cc2Cl)c1Br` it was 85 to 87 °C; in that of `COc1ccc2[nH]c(S(=O)Cc3cc(N4CCCCC4)c(Br)cn3)nc2c1` (centres undefined), 114 to 118 °C. The molecule `CCOc1cccc(CNCCc2ccccc2)c1O` displayed a melting point of 88 to 90 °C. `CC12CCC(OC(=O)c3ccc([N+](=O)[O-])cc3)CC1=CCC1C2CCC2(C)C(=NO)CCC12` (centres undefined) showed a melting point of 185 to 188 °C. The same measure for `COC(=O)c1cc2c(Sc3ccc(C)cc3)cncc2s1`: 116 to 119 °C; for `Oc1ccc(Oc2cnc3ccccc3c2)cc1`: 250 °C. With `Oc1cc(CCc2ccccc2)cc(O)c1O`, the melting point amounted to 124 °C. `CC(=O)Nc1nc2c(Oc3cc(-c4ccc(C(F)(F)F)cc4Br)ncn3)cccc2s1` registered a melting point of 260 °C. For the molecule `CCON1C(=O)c2ccccc2C1=O`, the melting point is 95 to 97 °C. Regarding `CC(C)NC(=O)c1c(NC(=O)c2cc(C(F)(F)F)nn2-c2ncccc2Cl)c(Br)cc2cn[nH]c12`, the melting point fell in the range of 189 to 190 °C. In the case of `CCCCCC(O)c1cccc(OCc2cccc(CC(=O)O)c2)c1` (centres undefined) it was 111 to 113 °C; in that of `COCCOc1nc2cc(-c3ccc(OC)cc3)nnc2c2ccccc12`, 148 to 150 °C; in that of `CN1CCC(=C2c3ccccc3Oc3ccc(C(F)(F)F)cc32)CC1`, 82 to 83 °C. `Nc1ccc2ccc(Oc3ccc(Cl)c(Cl)c3)nc2n1` returned a melting point of 206 °C.

In the case of `O=C1Cc2cccc(Sc3ccccc3Cl)c2N1`, the melting point lay within 178 to 180 °C.

`COC(=O)c1ccc(C=C(Br)Br)c(N)c1` registered a melting point of 97 to 99 °C. For `Cc1cnc2cc(-c3cn(C)c4ccccc34)[nH]c2n1`, the melting point lay within 170 to 175 °C. The same measure for `S=C1CCCC(c2ccc(Br)cc2)N1` (centres undefined): 157 °C. The molecule `O=S1(=O)c2ccccc2C(c2ccccc2)N1CCCl` (centres undefined) yielded a melting point of 121 °C.

`Nc1ccc(-c2cc3c(Oc4ccc(Cl)cc4)cncc3s2)cc1`: the melting point lay within 178 to 182 °C. As for `CS(=O)c1cc(Cl)c(C=O)c(Cl)c1` (centres undefined), the melting point was in the range of 100 to 102 °C. Molecule `CNc1nc(-c2ccc(C(F)(F)F)cc2)c2cc(C)sc2n1` returned a melting point of 233 °C.

`CCC(CC)/C(N)=C(\C#N)C(=O)OC(C)C`: the melting point came to 140 °C. Regarding `N#Cc1cc(S(=O)(=O)C(F)(F)F)[nH]c1-c1ccc(Cl)cc1`, the melting point is 228 to 230 °C. In the case of `O=Cc1cccc(/C=C/c2nc3cc(F)ccc3s2)c1` it was 151 to 152 °C; in that of `COC(=O)c1cc(C(C)=O)c(C(F)(F)F)cc1NC(C)=O`, 66 to 69 °C. The same measure for `Oc1ccc(-c2c3ccccc3cc3sc4ccccc4c23)cc1O`: 188 to 189 °C; for `CCC(CC)N(Cc1ccc(C(=O)OC)cc1)S(=O)(=O)c1ccc(F)cc1`: 78 to 80 °C.

The molecule `C#Cc1ccc2c(c1)C(c1ccccn1)=NCc1c(C(=O)NC)ncn1-2` showed a melting point of 215 to 216 °C. In the case of `C[Si](C)(O[C@@H]1c2cc(Br)ccc2-c2ccc(Br)cc2[C@H]1O[Si](C)(C)c1ccccc1)c1ccccc1` (relative stereo) it was 103 to 104 °C; in that of `COc1ccccc1NC(=O)Nc1ccc(N2CCN(C(=O)Nc3ccc(OCCO)cc3Cl)CC2)cc1`, 134 to 136 °C.

Regarding `COC(=O)c1ccccc1SSc1ccccc1C(=O)Nc1ccc(S(N)(=O)=O)cc1`, the melting point was 288 to 290 °C. `CCN(CC)CCCNC(=O)Cn1ncc(-c2ccc(NS(C)(=O)=O)cc2)c1-c1ccccc1`: the melting point fell in the range of 179 to 180 °C. `CN(C)Cc1c(-c2ccccc2)[nH]c2nccnc12` displayed a melting point of 191 to 192 °C. In the case of `N#CCCn1nc(O)nc1Cl` it was 149 to 150 °C; in that of `CCOC(=O)Cc1nn(C(c2ccccn2)c2ncno2)c(=O)c2ccccc12` (centres undefined), 118 to 128 °C; in that of `OC1Cc2cc(F)ccc2Sc2ccccc21` (centres undefined), 110 to 113 °C. The same measure for `COc1cc2c(cc1OC)OCC(=O)C2`: 126 to 130 °C. In the case of `COC(=O)c1cccc(N)c1S` it was 174 to 175 °C; in that of `O=C(O)CCCCCc1c(-c2cccnc2)[nH]c2ccc(O)cc12`, 185 to 187 °C. As for `Cn1c(=O)oc2cc3c(cc21)C1(CO3)C(=O)N(C(c2ccccc2)c2ccccc2)c2ccccc21` (centres undefined), the melting point is greater than 250 °C. `N#Cc1c(Cl)ccc2[nH]c(Sc3cccc4c(=O)cc[nH]c34)nc12` returned a melting point of 376 °C. As for `CCc1nc2c(C)c(C#N)c(C)cc2n1-c1ccc(CCNC(=O)NS(=O)(=O)c2ccc(C)cc2)cc1`, the melting point lay within 140 to 145 °C. In the case of `CN1CCOc2cc([N+](=O)[O-])ccc2C1=O` it was 130 to 132 °C; in that of `O=C(O)C1c2ccccc2COc2ccc(Cl)cc21` (centres undefined), 182 to 183 °C; in that of `CCOC(=NC(=O)c1cc(Cl)nc(Cl)c1)N1Cc2ccccc2-c2ccccc2C1`, 151 to 152 °C.

As to `C#CC1(OC(=O)NCc2ccccc2)CCN(CCC=C(c2ccc(F)cc2)c2ccc(F)cc2)CC1`, the melting point was in the range of 53 to 54 °C. `CCCCOC(=O)c1c(Cn2ccnc2)nc2cc(OC)c(OC)cc2c1-c1ccc(OC)c(OC)c1`: the melting point fell in the range of 140 to 141 °C. The same measure for `CN(C)CCCC1(C(=O)O)CCCCC1(O)c1ccccc1` (centres undefined): 144 to 145 °C; for `Cc1nc(-c2ccc(-c3ccc(C(=O)Nc4cc(OCCN(C)C)c(I)cc4I)cc3)c(C)c2)no1`: 69 to 71 °C; for `NS(=O)(=O)NC(c1ccccc1)P(=O)(Oc1ccccc1)Oc1ccccc1` (centres undefined): 171 to 174 °C.
